Test results taken from ChEMBL document CHEMBL4052647, “Synthesis and pharmacological evaluation of novel chromone derivatives as balanced multifunctional agents against Alzheimer's disease” (Bioorg Med Chem, 2017).
Active and inactive are the calls of the source. No cut-off for these calls is given here.

Assays:
[1] = biological target: Amyloid-beta precursor protein (Homo sapiens) (UniProt P05067); test: Inhibition of HFIP-pretreated amyloid beta (1 to 42) (unknown origin) self-induced aggregation at 20 uM after 46 to 48 hrs by thioflavin-T fluorescence assay relative to control
[2] = biological target: T1, Amine oxidase [flavin-containing] B (Homo sapiens, UniProt P27338); test: biochemical; type: cell-based
T1 sequence (P27338 whole entry): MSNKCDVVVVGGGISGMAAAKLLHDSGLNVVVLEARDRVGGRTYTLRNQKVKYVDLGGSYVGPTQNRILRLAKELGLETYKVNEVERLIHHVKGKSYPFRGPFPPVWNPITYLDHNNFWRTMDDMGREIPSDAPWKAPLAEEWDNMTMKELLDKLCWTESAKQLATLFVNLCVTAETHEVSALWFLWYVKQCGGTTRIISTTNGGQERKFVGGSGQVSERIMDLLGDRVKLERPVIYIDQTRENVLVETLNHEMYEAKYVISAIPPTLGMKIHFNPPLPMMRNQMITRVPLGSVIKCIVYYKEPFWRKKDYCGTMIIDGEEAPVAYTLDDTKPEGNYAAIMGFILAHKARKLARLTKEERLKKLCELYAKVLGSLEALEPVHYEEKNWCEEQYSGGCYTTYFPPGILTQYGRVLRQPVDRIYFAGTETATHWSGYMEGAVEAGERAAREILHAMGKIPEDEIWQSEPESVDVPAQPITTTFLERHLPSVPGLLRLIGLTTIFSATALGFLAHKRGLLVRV
Description: Inhibition of recombinant human MAO-B expressed in baculovirus infected BTI insect cells using p-tyramine as substrate pretreated for 15 mins followed by substrate addition after 20 mins by Amplex red reagent based fluorimetric method

[3] = organism: Homo sapiens; test: Selectivity index, ratio of IC50 for recombinant human MAO-A expressed in baculovirus infected BTI insect cells to IC50 for recombinant human MAO-B expressed in baculovirus infected BTI insect cells
[4] = biological target: T2, Amine oxidase [flavin-containing] A (Homo sapiens, UniProt P21397); test: Inhibition of recombinant human MAO-A expressed in baculovirus infected BTI insect cells using p-tyramine as substrate pretreated for 15 mins followed by substrate addition after 20 mins by Amplex red reagent based fluorimetric method
T2 sequence (P21397 whole entry): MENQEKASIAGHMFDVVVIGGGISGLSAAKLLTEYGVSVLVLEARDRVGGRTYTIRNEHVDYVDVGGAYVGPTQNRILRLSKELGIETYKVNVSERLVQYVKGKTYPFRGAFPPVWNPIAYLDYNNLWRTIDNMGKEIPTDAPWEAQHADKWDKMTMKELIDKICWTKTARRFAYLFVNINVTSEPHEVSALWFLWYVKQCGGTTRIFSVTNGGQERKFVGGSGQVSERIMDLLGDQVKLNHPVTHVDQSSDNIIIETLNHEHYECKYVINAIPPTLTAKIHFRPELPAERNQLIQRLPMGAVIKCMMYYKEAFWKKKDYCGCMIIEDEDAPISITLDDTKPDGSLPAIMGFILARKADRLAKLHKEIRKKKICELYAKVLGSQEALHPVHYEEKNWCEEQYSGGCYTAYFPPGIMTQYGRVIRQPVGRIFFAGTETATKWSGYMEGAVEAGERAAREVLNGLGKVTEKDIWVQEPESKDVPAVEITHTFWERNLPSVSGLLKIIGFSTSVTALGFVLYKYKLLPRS

[5] = system: PC-12; test: Cytotoxicity against rat PC12 cells at 20 uM after 24 hrs by MTT assay; type: cell-based; conditions: pc-12, 24 h
[6] = Antioxidant activity assessed as trolox equivalent of […]-induced radical scavenging activity at 1 to 10 uM preincubated for 15 mins followed by AAPH addition measured every minute for 120 mins by ORAC fluorescein assay; type: functional
[7] = Metal chelating activity assessed as inhibition of Cu2+-induced amyloid beta (1 to 42 residues) aggregation at 50 uM after 24 hrs by thioflavin-T fluorescence assay (reference value: 142%)
[8] = Metal chelating activity assessed as inhibition of Cu2+-induced amyloid beta (1 to 42 residues) aggregation by measuring reduction in amyloid fibrils at 50 uM […] by uranyl acetate staining based transmission electron microscopic analysis
[9] = system: PC-12; test: Neuroprotective activity against H2O2-induced cell death in rat PC12 cells assessed as increase in cell viability at 10 uM pretreated for 24 hrs followed by H2O2 induction after 24 hrs by MTT assay; type: functional, cell-based
[10] = biological target: Amyloid-beta precursor protein (Homo sapiens) (UniProt P05067); test: Potency index, ratio of compound effect to curcumin effect for inhibition of HFIP-pretreated amyloid beta (1 to 42) (unknown origin) self-induced aggregation at 20 uM
[11] = physchem; conditions: PAMPA
[12] = physchem; conditions: PAMPA, pH 7.4
[13] = Metal chelating activity of the compound assessed as formation of ferric-compound complex at 50 uM after 30 mins by UV-vis spectrophotometric method
[14] = Metal chelating activity of the compound assessed as formation of Cu2+-compound complex at 50 uM after 20 mins by fluorescence emission spectral analysis
[15] = system: PC-12; test: Neuroprotective activity against H2O2-induced oxidative stress in rat PC12 cells assessed as reduction in intracellular reactive oxygen species level after 24 hrs by DCFH-DA probe based flow cytometric analysis; type: functional, cell-based
[16] = Metal chelating activity of the compound assessed as formation of ferrous-compound complex at 50 uM after 20 mins by fluorescence emission spectral analysis
[17] = Metal chelating activity of the compound assessed as formation of Cu2+-compound complex at 50 uM after 30 mins by UV-vis spectrophotometric method
[18] = Metal chelating activity assessed as mole fraction of compound required to show 1:1 stoichiometry for Cu2+-compound complex by Job's plot method
[19] = Metal chelating activity of the compound assessed as formation of zinc-compound complex at 50 uM after 20 mins by fluorescence emission spectral analysis
[20] = system: PC-12; test: Neuroprotective activity against H2O2-induced cell death in rat PC12 cells assessed as increase in cell viability at 20 uM pretreated for 24 hrs followed by H2O2 induction after 24 hrs by MTT assay; type: functional, cell-based
[21] = Metal chelating activity of the compound assessed as formation of ferric-compound complex at 50 uM after 20 mins by fluorescence emission spectral analysis
[22] = Metal chelating activity of the compound assessed as formation of ferrous-compound complex at 50 uM after 30 mins by UV-vis spectrophotometric method
[23] = system: PC-12; test: Neuroprotective activity against H2O2-induced cell death in rat PC12 cells assessed as increase in cell viability at 1 to 5 uM pretreated for 24 hrs followed by H2O2 induction after 24 hrs by MTT assay; type: functional, cell-based

Amyloid-beta precursor protein (Homo sapiens), sequence (P05067 whole entry): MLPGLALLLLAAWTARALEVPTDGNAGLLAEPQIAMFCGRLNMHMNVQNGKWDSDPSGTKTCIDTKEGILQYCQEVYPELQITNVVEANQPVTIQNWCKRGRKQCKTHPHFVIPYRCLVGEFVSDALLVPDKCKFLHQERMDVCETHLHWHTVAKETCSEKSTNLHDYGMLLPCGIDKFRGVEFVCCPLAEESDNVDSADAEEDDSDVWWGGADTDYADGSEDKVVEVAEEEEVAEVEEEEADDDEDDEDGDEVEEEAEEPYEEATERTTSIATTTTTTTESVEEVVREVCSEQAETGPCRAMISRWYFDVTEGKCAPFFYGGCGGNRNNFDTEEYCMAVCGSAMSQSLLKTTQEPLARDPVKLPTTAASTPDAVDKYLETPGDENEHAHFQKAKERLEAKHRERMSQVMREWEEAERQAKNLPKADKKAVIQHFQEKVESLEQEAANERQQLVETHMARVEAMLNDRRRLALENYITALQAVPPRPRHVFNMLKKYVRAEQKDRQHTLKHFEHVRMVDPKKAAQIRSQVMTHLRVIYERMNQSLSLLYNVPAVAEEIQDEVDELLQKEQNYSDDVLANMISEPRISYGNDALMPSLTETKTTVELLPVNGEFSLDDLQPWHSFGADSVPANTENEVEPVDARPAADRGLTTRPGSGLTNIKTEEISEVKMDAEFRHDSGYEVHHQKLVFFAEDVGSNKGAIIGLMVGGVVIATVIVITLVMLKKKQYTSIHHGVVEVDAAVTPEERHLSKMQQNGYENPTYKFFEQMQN

SMILES	inhibition [1]	IC50 [2]	IC50 [4]	Ratio IC50 [3]	Activity [5]	Activity [6]	also measured
O=c1c(/C=N/c2cc3ccccc3cc2O)coc2ccccc12	66.5%	6.42 µM	3.35 µM	0.52	Non-Toxic	1.82 equiv	
Oc1c(I)cc(Cl)c2cccnc12							inhibition [7]: 47.7%; inhibition [8]: Active
Cc1c(C)c2c(c(C)c1O)CCC(C)(C(=O)O)O2 (configuration not stated)							Activity [9]: Active
COc1ccc2[nH]cc(CCNC(C)=O)c2c1						2.05 equiv	
Cc1ccc(/N=C/c2coc3ccc(C)cc3c2=O)c(O)c1	45.6%	21.4 µM	20.8 µM	0.97	Non-Toxic	2.48 equiv	
O=c1c(/C=N/c2cc(Cl)ccc2O)coc2ccc(Br)cc12	72.1%	3.28 µM	4.55 µM	1.39	Non-Toxic	2.16 equiv	
Cc1ccc(/N=C/c2coc3ccccc3c2=O)c(O)c1	75.2%	14.3 µM	6.26 µM	0.44	Non-Toxic	2.26 equiv	
CCn1cc(C(=O)O)c(=O)c2cc(F)c(N3CCNC(C)C3)c(F)c21 (configuration not stated) [LOMEFLOXACIN]							Papp at 16 h [11]: 3.1 ×10⁻⁶ cm/s; Papp at 18 h, 25 ug/ml [12]: 1.9 ×10⁻⁶ cm/s
Cc1ccc2occ(/C=N/c3cc(F)ccc3O)c(=O)c2c1	87.3%	2.34 µM	3.83 µM	1.64	Non-Toxic	2.92 equiv	
NCCc1ccc(O)c(O)c1 [DOPAMINE]							Papp at 16 h [11]: 1.32 ×10⁻⁶ cm/s; Papp at 18 h, 25 ug/ml [12]: 0.8 ×10⁻⁶ cm/s
O=c1c(/C=N/c2ncccc2O)coc2ccc(Br)cc12	69.8%	2.92 µM	9.81 µM	3.31	Non-Toxic	2.97 equiv	
O=c1c(/C=N/c2cc(Cl)ccc2O)coc2ccccc12	68.1%	19.2 µM	1.94 µM	0.11	Non-Toxic	2.24 equiv	
O=c1c(/C=N/c2cccc(Cl)c2O)coc2ccccc12	79.5%	14.5 µM	1.65 µM	0.11	Non-Toxic	2.01 equiv	
Oc1ccc(/C=C/c2cc(O)cc(O)c2)cc1	57.2%						inhibition [7]: 63.3%; inhibition [8]: Active
O=c1c(/C=N/c2ccccc2O)coc2ccccc12	65.2%	31.5 µM	6.81 µM	0.22	Non-Toxic	2.39 equiv	

The next lines start with results.

inhibition [1]	IC50 [2]	IC50 [4]	SMILES	Ratio IC50 [3]	Activity [5]	Activity [6]	also measured
71.5%	0.764 µM	2.72 µM	O=c1c(/C=N/c2ccc(F)cc2O)coc2ccc(Br)cc12	3.56	Non-Toxic	2.73 equiv	
89.5%	1.12 µM	7.14 µM	Cc1ccc(O)c(/N=C/c2coc3ccc(Br)cc3c2=O)c1	6.38	Non-Toxic	0.784 equiv	Ratio [10]: 1.9
64.5%	1.78 µM	4.65 µM	O=c1c(/C=N/c2cc(F)ccc2O)coc2ccccc12	2.61	Non-Toxic	2.6 equiv	
71.9%	0.634 µM	2.15 µM	Cc1ccc2occ(/C=N/c3cc(Cl)ccc3O)c(=O)c2c1	3.39	Non-Toxic	2.61 equiv	
70.8%	2.23 µM	7.41 µM	O=c1c(/C=N/c2ncccc2O)coc2ccccc12		Non-Toxic	2.23 equiv	
87.6%	1.29 µM	3.18 µM	O=c1c(/C=N/c2ccc(Cl)cc2O)coc2ccc(Br)cc12	2.47	Non-Toxic	1.92 equiv	
51.5%	1.78 µM	1.42 µM	O=c1c(/C=N/c2ccc(Cl)cc2O)coc2ccccc12	0.8	Non-Toxic	2.36 equiv	
75.1%	0.816 µM	5.12 µM	Cc1ccc(O)c(/N=C/c2coc3ccc(C)cc3c2=O)c1	6.21	Non-Toxic	3.62 equiv	Activity [13]: Active; Activity [14]: Active; Activity [15]: Dose-dependent effect; Activity [16]: Active; Papp at 16 h [11]: 4.94 ×10⁻⁶ cm/s; Activity [17]: Active; Activity [18]: 0.55 molar ratio; Activity [19]: Active; Activity [20]: inactive; Activity [9]: inactive; Activity [21]: Active; Activity [22]: Active; Activity [23]: Active; inhibition [7]: 60.3%; inhibition [8]: Active
68.1%	2.27 µM	4.47 µM	O=c1c(/C=N/c2cccc(Cl)c2O)coc2ccc(Br)cc12	1.97	Non-Toxic	2.6 equiv	Papp at 16 h [11]: 4.81 ×10⁻⁶ cm/s
79.1%	0.825 µM	3.09 µM	O=c1c(/C=N/c2cc(F)ccc2O)coc2ccc(Br)cc12	3.75	Non-Toxic	2.68 equiv	
71.2%	1.64 µM	7.27 µM	Cc1ccc2occ(/C=N/c3cc([N+](=O)[O-])ccc3O)c(=O)c2c1	4.43	Non-Toxic	2.73 equiv	
63.4%	2.03 µM	7.35 µM	Cc1ccc2occ(/C=N/c3ncccc3O)c(=O)c2c1	3.62	Non-Toxic	2.03 equiv	
58.1%	1.13 µM	3.34 µM	Cc1ccc(O)c(/N=C/c2coc3ccccc3c2=O)c1	2.96	Non-Toxic	2.43 equiv	
48.3%	0.915 µM	2.62 µM	Cc1ccc2occ(/C=N/c3ccc(Cl)cc3O)c(=O)c2c1	2.86	Non-Toxic	3.41 equiv	Papp at 16 h [11]: 5.57 ×10⁻⁶ cm/s; Activity [9]: Active
